Experimental data published in patent publication US20220218614A1, “IONIZABLE CATIONIC LIPIDS AND LIPID NANOPARTICLES, AND METHODS OF SYNTHESIS AND USE THEREOF” (Tidal Therapeutics, Inc., priority 2020, published 2022).
“Also recorded” adds a separate entry of the source.

Key:
[1] = tested on: human T cells in PBMC-engrafted NSG mice; assay: In vivo reprogramming of immune cells with DiI LNP expressing GFP in PBMC-humanized NSG mice; design: species or system mouse; conditions: 24 h
Method: The NSG (NOD.Cg-Prkdcscid Il2rgtmlWjl/SzJ) mouse model was purchased from Jax Laboratories. 6-8 weeks old male mice were engrafted with 10 million PBMC of qualified donor in sterile PBS by tail vein injection. Individual body weight was monitored twice a week and blood samples were collected at appropriate interval to evaluate human immune cells engraftment.
50 μl blood was collected by tail vein bleed from each mouse. Red blood cells were lysed using Versalyse, RBC lysis solution following protocol as instructed by manufacturer (Beckman Coulter A09777). Cells were stained with hCD45 & hCD3 to determine the engraftment of human T-cells. After 15 days of PBMC injection, mice had anywhere from 30-60% huCD45+. These humanized mice were evaluated for reprogramming of immune cells by LNPs expressing DiI dye and GFP.
At time zero, mice (n=4 per group) were injected with GFP expressing DiI LNPs (by i. v. at 0.3 mg/kg or 0.1 mg/kg with appropriate buffer. At each time point, 24 or 48h depending on the example mice treated with either LNPs or buffer were sacrificed. Terminal blood and tissues collection was performed to determine DiI and GFP expression in different organs and immune cells as below.
At above specified timepoints, mice were anesthetized with CO2 before sample collection. For blood collection, the chest was opened to expose the heart. […]

[2] = Hydrodynamic diameter and polydispersity of LNPs by dynamic light scattering (DLS), Zetasizer; type: physicochemical
Method: (§1) Samples of the LNPs produced in Example 2 were characterized to determine the average hydrodynamic diameter, zeta potential, and mRNA content (total and dye-accessible). The hydrodynamic diameter was determined by dynamic light scattering (DLS) using a Zetasizer model ZEN3600 (Malvern Pananalytical, UK). The zeta potential was measured in 5 mM pH 5.5 MES buffer and 5 mM pH 7.4 HEPES buffer by laser Doppler electrophoresis using the Zetasizer.

[3] = tested on: primary human T-cells (CD3+ T cells); assay: In vitro LNP transfection of primary human T-cells (GFP, Cy5 or DiI, viability by FACS); type: cell-based
Source text: This example describes the protocol used for in vitro LNP transfections in primary human T-cells. This method is used to assess LNP in vitro efficacy in relevant target cells (CD3+ T cells) by first transfecting the cells using LNPs loaded with mRNA encoding for a reporter gene, such as GFP mRNA, and then assessing transfection by measuring reporter gene expression by fluorescence-[…] cell sorting (FACS). Additionally, particle association with cells may be observed by in the same assay by labeling individual nanoparticle components, such as the mRNA, with a fluorescent dye, such as Cy5, and then observing cell/dye association by FACS.
CD3+ T cells were isolated from frozen peripheral blood mononuclear cells using an EasySep Human T Cell Isolation Kit on a RoboSep automated cell isolation system from […]. T cells were plated into a flat bottom 96-well plate in RPMI cell culture media supplemented with glutamax, 10% fetal bovine serum, and 40 ng/mL IL2. 100 μL of cell suspension was seeded per well at a density of 1M T cells/mL (100K T cells/well). Cells were allowed to rest for two hours in a 37° C. incubator, and then were transfected by gently adding 10 μL of a 22 μg/mL (by mRNA) nanoparticle suspension, resulting in a final mRNA concentration of 2 μg/mL. Cells were gently mixed with a pipette and then incubated for 24 hours in a 37° C. incubator. After incubation the cells were analyzed using an ThermoFisher Attune NXT flow cytometer. Cy5 was detected using a 638 nm laser with 670/14 nm filter. eGFP was detected using a 488 nm laser and a 530/30 nm filter. Data were analyzed using FlowJo software from BD biosciences. FACS data were first gated to exclude doublets and dead cells and then gated for GFP and Cy5. Gates for GFP+ and Cy5+were set such that a control sample (PBS treated T cells) was <0.1% positive.
CD3+ T cells were isolated from frozen peripheral blood mononuclear cells using an EasySep Human T Cell Isolation Kit on a RoboSep automated cell isolation system from […]. T cells were plated into a round bottom 96-well plate in RPMI cell culture media supplemented with glutamax, 10% fetal bovine serum, pen-strep, and 40 ng/mL IL-2. 100 μL of cell suspension was seeded per well at a density of 1M T cells/mL (100K T cells/well). Cells were allowed to rest for two hours in a 37° C. incubator, and then were transfected by gently adding 10 μL of a 22 μg/mL (by mRNA) nanoparticle suspension, resulting in a final mRNA concentration of 2 μg/mL (unless otherwise noted). Cells were gently mixed with a pipette and then incubated for 24 hours in a 37° C. incubator. After incubation the cells were diluted with FACS buffer (BD 554657) and analyzed using a BD Fortessa flow cytometer. Data were analyzed using FlowJo software from BD biosciences.

[4] = Zeta potential of LNPs by laser Doppler electrophoresis in 5 mM pH 5.5 MES and 5 mM pH 7.4 HEPES buffer; type: physicochemical; conditions: pH 5.5 MES and pH 7.4 HEPES buffer
Method: as §1

[5] = Quant-iT RiboGreen RNA assay: dye accessible and total (Triton) mRNA content, encapsulation; type: physicochemical
Method: RNA content of the nanoparticles is measured using Thermo Fisher Quant-iT RiboGreen RNA Assay Kit. Dye accessible RNA, which includes both non-incorporated RNA and RNA that is near the surface of the nanoparticle, is measured by diluting the nanoparticles to approximately 1 μg/mL mRNA using HEPES buffered saline, and then adding Quant-iT reagent to the mixture. Total RNA content is measured by diluting the particles to 1 μg/mL mRNA using HEPES buffered saline, disrupting the nanoparticles by heating them to 60° C. for 30 minutes in HEPES buffered saline containing 0.5% Triton, and then adding Quant-It reagent. RNA is quantified by measuring fluorescence at 485/535 nm, and concentration is determined relative to a contemporaneously run RNA standard curve.

[6] = Table 10: Lipid 5 and Lipid 7 LNP, theoretical total mRNA 50 μg/mL

SMILES: CCCCC/C=C\C/C=C\CCCCCCCC(=O)OC[C@H](CCN(C)C)OC(=O)CCCCCCC/C=C\C/C=C\CCCCC [Lipid 5]
- GFP expression of T cells in blood and lung ([1]; 0.1 mg/kg, CD3 (hsp34) targeted LNP, DPG-PEG-1.5%): about 25%
- in vivo reprogramming (GFP, DiI) of T cells, in words ([1]; 0.3 mg/kg (0.1 mg/kg in Example 30)): superior for reprogramming T cells
- polydispersity after antibody conjugate insertion [2]: < 0.15
- change in particle size and PDI upon conjugate insertion ([2]; insertion of anti-CD3 hSP34-PEG2k-DSPE conjugate): larger change in hydrodynamic diameter (relative to Lipid 7 LNP); also recorded: larger change in hydrodynamic diameter (relative to Lipid 8 LNP)
- GFP MFI, fold relative to DLn-MC3-DMA ([3]; 0.5 ug/mL and 1.0 ug/mL dose/well): > 5 fold
- T-cell viability ([3]; all three dose levels (0.125, 0.5 and 2 ug mRNA/mL per well), PBS control about 50%): 40-45%
- GFP protein expression (% GFP+ cells, GFP MFI), in words ([3]; hSP34 targeted LNP with GFP mRNA, 24 hours): Dose dependent expression of GFP protein; also recorded: greater overall protein expression at all three mRNA dose levels; also recorded: outperformed both Lipid 8 and DLn-MC3-DMA
- LNP association with cells (% Cy5+/Cy5 MFI or % DiI+/DiI MFI), in words ([3]; hSP34 targeted LNP, 24 hours): equally associated with cells
- T-cell viability / tolerability, in words ([3]; hSP34 targeted LNP, 24 hours, dose as in the value): well tolerated by T-cells at and below 0.5 μg/mL dose; also recorded: consistently better tolerated by T-cells; also recorded: well tolerated by T-cells at and below 1.0 μg/mL dose; also recorded: better tolerated at higher doses; also recorded: least toxic at 1 ug/mL dose
- LNP surface charge (zeta potential), in words [4]: positive zeta potential at pH 5.5, and either near neutral or slightly negative charge at pH 7.4
- % Dye Accessible mRNA ([5]; Table 10: Lipid 5 and Lipid 7 LNP): 23%
- Measured total (Triton method) mRNA [5, 6]: 43 µg/mL
- Ribogreen Dye Accessible mRNA [5, 6]: 10 µg/mL
- Measured total (Triton method) mRNA ([5]; Table 11A: Lipid 5, Lipid 8 and DLn-MC3-DMA LNP, vortexer mixing, theoretical total mRNA 42.5 ug/mL): 27 µg/mL
- Ribogreen Dye Accessible mRNA ([5]; Table 11A: vortexer mixing, theoretical total mRNA 42.5 ug/mL): 4 µg/mL
